Measurements as given in ChEMBL document CHEMBL2346657, “Synthesis of novel 2-amino-4-(5'-substituted 2'-phenyl-1H-indol-3'-yl)-6-aryl-4H-pyran-3-carbonitrile derivatives as antimicrobial and antioxidant agents” (2013).
The source made the active and inactive calls. How the calls were made is not given here.

Tests used:
Assay type in all cases: functional
[1] = Antioxidant activity assessed as metal chelating activity by measuring inhibition of ferrozine-Fe2+ complex formation at 25 to 100 ug/ml
Aspergillus flavus [2] = test: Antimicrobial activity against Aspergillus flavus MTCC 1973 at 500 ug/ml after 72 hrs by cup plate method; settings: MTCC 1973, 72 h, read-out: IZ
Aspergillus flavus [3] = test: Antimicrobial activity against Aspergillus flavus MTCC 1973 at 750 ug/ml after 72 hrs by cup plate method; settings: MTCC 1973, 72 h, read-out: IZ
Aspergillus flavus [4] = test: Antimicrobial activity against Aspergillus flavus MTCC 1973 at 1000 ug/ml after 72 hrs by cup plate method; settings: MTCC 1973, 72 h, read-out: IZ
Aspergillus terreus [5] = test: Antimicrobial activity against Aspergillus terreus MTCC 1782 at 500 ug/ml after 72 hrs by cup plate method; settings: MTCC 1782, 72 h, read-out: IZ
Aspergillus terreus [6] = test: Antimicrobial activity against Aspergillus terreus MTCC 1782 at 750 ug/ml after 72 hrs by cup plate method; settings: MTCC 1782, 72 h, read-out: IZ
Aspergillus terreus [7] = test: Antimicrobial activity against Aspergillus terreus MTCC 1782 at 1000 ug/ml after 72 hrs by cup plate method; settings: MTCC 1782, 72 h, read-out: IZ
Aspergillus oryzae [8] = test: Antimicrobial activity against Aspergillus oryzae MTCC 3567 at 500 ug/ml after 72 hrs by cup plate method; settings: MTCC 3567, 72 h, read-out: IZ
Aspergillus oryzae [9] = test: Antimicrobial activity against Aspergillus oryzae MTCC 3567 at 750 ug/ml after 72 hrs by cup plate method; settings: MTCC 3567, 72 h, read-out: IZ
Aspergillus oryzae [10] = test: Antimicrobial activity against Aspergillus oryzae MTCC 3567 at 1000 ug/ml after 72 hrs by cup plate method; settings: MTCC 3567, 72 h, read-out: IZ
Aspergillus niger [11] = test: Antimicrobial activity against Aspergillus niger MTCC 281 at 500 ug/ml after 72 hrs by cup plate method; settings: MTCC 281, 72 h, read-out: IZ
Aspergillus niger [12] = test: Antimicrobial activity against Aspergillus niger MTCC 281 at 750 ug/ml after 72 hrs by cup plate method; settings: MTCC 281, 72 h, read-out: IZ
Aspergillus niger [13] = test: Antimicrobial activity against Aspergillus niger MTCC 281 at 1000 ug/ml after 72 hrs by cup plate method; settings: MTCC 281, 72 h, read-out: IZ
Pseudomonas aeruginosa [14] = test: Antimicrobial activity against Pseudomonas aeruginosa MTCC 1688 at 500 ug/ml after 24 hrs by cup plate method; settings: MTCC 1688, 24 h, read-out: IZ
Pseudomonas aeruginosa [15] = test: Antimicrobial activity against Pseudomonas aeruginosa MTCC 1688 at 750 ug/ml after 24 hrs by cup plate method; settings: MTCC 1688, 24 h, read-out: IZ
Pseudomonas aeruginosa [16] = test: Antimicrobial activity against Pseudomonas aeruginosa MTCC 1688 at 1000 ug/ml after 24 hrs by cup plate method; settings: MTCC 1688, 24 h, read-out: IZ
Klebsiella pneumoniae [17] = test: Antimicrobial activity against Klebsiella pneumoniae NCTC 13368 at 500 ug/ml after 24 hrs by cup plate method; settings: NCTC 13368, 24 h, read-out: IZ
Klebsiella pneumoniae [18] = test: Antimicrobial activity against Klebsiella pneumoniae NCTC 13368 at 750 ug/ml after 24 hrs by cup plate method; settings: NCTC 13368, 24 h, read-out: IZ
Klebsiella pneumoniae [19] = test: Antimicrobial activity against Klebsiella pneumoniae NCTC 13368 at 1000 ug/ml after 24 hrs by cup plate method; settings: NCTC 13368, 24 h, read-out: IZ
Staphylococcus aureus [20] = test: Antimicrobial activity against Staphylococcus aureus ATCC 29513 at 500 ug/ml after 24 hrs by cup plate method; settings: ATCC 29513, 24 h, read-out: IZ
Staphylococcus aureus [21] = test: Antimicrobial activity against Staphylococcus aureus ATCC 29513 at 750 ug/ml after 24 hrs by cup plate method; settings: ATCC 29513, 24 h, read-out: IZ
Staphylococcus aureus [22] = test: Antimicrobial activity against Staphylococcus aureus ATCC 29513 at 1000 ug/ml after 24 hrs by cup plate method; settings: ATCC 29513, 24 h, read-out: IZ
Escherichia coli [23] = test: Antimicrobial activity against Escherichia coli MTCC 723 at 500 ug/ml after 24 hrs by cup plate method; settings: MTCC 723, 24 h, read-out: IZ
Escherichia coli [24] = test: Antimicrobial activity against Escherichia coli MTCC 723 at 750 ug/ml after 24 hrs by cup plate method; settings: MTCC 723, 24 h, read-out: IZ
Escherichia coli [25] = test: Antimicrobial activity against Escherichia coli MTCC 723 at 1000 ug/ml after 24 hrs by cup plate method; settings: MTCC 723, 24 h, read-out: IZ

Structure (SMILES) | Activity [1] | zone of inhibition at 500 µg/mL (Aspergillus flavus [2]) [mm] | zone of inhibition at 750 µg/mL (Aspergillus flavus [3]) [mm] | zone of inhibition at 1000 µg/mL (Aspergillus flavus [4]) [mm] | zone of inhibition at 500 µg/mL (Aspergillus terreus [5]) [mm] | zone of inhibition at 750 µg/mL (Aspergillus terreus [6]) [mm] | zone of inhibition at 1000 µg/mL (Aspergillus terreus [7]) [mm] | zone of inhibition at 500 µg/mL (Aspergillus oryzae [8]) [mm] | zone of inhibition at 750 µg/mL (Aspergillus oryzae [9]) [mm] | zone of inhibition at 1000 µg/mL (Aspergillus oryzae [10]) [mm] | zone of inhibition at 500 µg/mL (Aspergillus niger [11]) [mm] | zone of inhibition at 750 µg/mL (Aspergillus niger [12]) [mm] | zone of inhibition at 1000 µg/mL (Aspergillus niger [13]) [mm] | zone of inhibition at 500 µg/mL (Pseudomonas aeruginosa [14]) [mm] | zone of inhibition at 750 µg/mL (Pseudomonas aeruginosa [15]) [mm] | zone of inhibition at 1000 µg/mL (Pseudomonas aeruginosa [16]) [mm] | zone of inhibition at 500 µg/mL (Klebsiella pneumoniae [17]) [mm] | zone of inhibition at 750 µg/mL (Klebsiella pneumoniae [18]) [mm] | zone of inhibition at 1000 µg/mL (Klebsiella pneumoniae [19]) [mm] | zone of inhibition at 500 µg/mL (Staphylococcus aureus [20]) [mm] | other results
Cc1ccc2[nH]c(-c3ccccc3)c(C3C=C(c4ccc(Cl)cc4)Oc4nc[nH]c(=O)c43)c2c1 (stereo not given) | Active | 5 | 5 | 5 | 6 | 6 | 6 | 8 | 8 | 8 | 10 | 10 | 11 | 4 | 4 | 4 | 5 | 5 | 5 | 10 | zone of inhibition at 750 µg/mL (Staphylococcus aureus [21]): 10 mm; zone of inhibition at 1000 µg/mL (Staphylococcus aureus [22]): 10 mm; zone of inhibition at 500 µg/mL (Escherichia coli [23]): 8 mm; zone of inhibition at 750 µg/mL (Escherichia coli [24]): 8 mm; zone of inhibition at 1000 µg/mL (Escherichia coli [25]): 8 mm
Cc1ccc2[nH]c(-c3ccccc3)c(C3C=C(c4ccccc4)Oc4[nH]nc(N)c43)c2c1 (stereo not given) | Active | 5 | 2 | 1 | 9 | 9 | 9 | 9 | 8 | 8 | 5 | 5 | 3 | 9 | 8 | 8 | 3 | 3 | 3 | 6 | zone of inhibition at 750 µg/mL (Staphylococcus aureus [21]): 5 mm; zone of inhibition at 1000 µg/mL (Staphylococcus aureus [22]): 5 mm; zone of inhibition at 500 µg/mL (Escherichia coli [23]): 3 mm; zone of inhibition at 750 µg/mL (Escherichia coli [24]): 3 mm; zone of inhibition at 1000 µg/mL (Escherichia coli [25]): 3 mm
Cc1ccc(C2=CC(c3c(-c4ccccc4)[nH]c4ccc(C)cc34)c3c(N)nc(=S)[nH]c3O2)cc1 (stereo not given) | Active | 9 | 8 | 9 | 5 | 5 | 5 | 5 | 5 | 5 | 0 | 0 | 0 | 6 | 5 | 5 | 6 | 5 | 5 | 0 | zone of inhibition at 750 µg/mL (Staphylococcus aureus [21]): 0 mm; zone of inhibition at 1000 µg/mL (Staphylococcus aureus [22]): 0 mm; zone of inhibition at 500 µg/mL (Escherichia coli [23]): 5 mm; zone of inhibition at 750 µg/mL (Escherichia coli [24]): 4 mm; zone of inhibition at 1000 µg/mL (Escherichia coli [25]): 4 mm
Cc1ccc2[nH]c(-c3ccccc3)c(C3C=C(c4ccc(Cl)cc4)Oc4nc5oc(=O)c(C#N)c(N)c5c(N)c43)c2c1 (stereo not given) | Active | 5 | 5 | 5 | 10 | 9 | 8 | 4 | 3 | 3 | 10 | 10 | 10 | 10 | 10 | 10 | 11 | 11 | 9 | 13 | zone of inhibition at 750 µg/mL (Staphylococcus aureus [21]): 13 mm; zone of inhibition at 1000 µg/mL (Staphylococcus aureus [22]): 14 mm; zone of inhibition at 500 µg/mL (Escherichia coli [23]): 13 mm; zone of inhibition at 750 µg/mL (Escherichia coli [24]): 13 mm; zone of inhibition at 1000 µg/mL (Escherichia coli [25]): 13 mm
Nc1nc(=O)[nH]c2c1C(c1c(-c3ccccc3)[nH]c3ccc(Cl)cc13)C=C(c1ccccc1)O2 (stereo not given) | Active | 10 | 10 | 9 | 3 | 3 | 3 | 12 | 12 | 12 | 10 | 10 | 8 | 9 | 8 | 5 | 11 | 10 | 10 | 3 | zone of inhibition at 750 µg/mL (Staphylococcus aureus [21]): 3 mm; zone of inhibition at 1000 µg/mL (Staphylococcus aureus [22]): 3 mm; zone of inhibition at 500 µg/mL (Escherichia coli [23]): 10 mm; zone of inhibition at 750 µg/mL (Escherichia coli [24]): 10 mm; zone of inhibition at 1000 µg/mL (Escherichia coli [25]): 10 mm
Nc1nc(=O)[nH]c2c1C(c1c(-c3ccccc3)[nH]c3ccccc13)C=C(c1ccc(Cl)cc1)O2 (stereo not given) | Active | 12 | 12 | 12 | 6 | 4 | 4 | 6 | 5 | 3 | 5 | 5 | 5 | 12 | 12 | 13 | 11 | 10 | 8 | 14 | zone of inhibition at 750 µg/mL (Staphylococcus aureus [21]): 14 mm; zone of inhibition at 1000 µg/mL (Staphylococcus aureus [22]): 14 mm; zone of inhibition at 500 µg/mL (Escherichia coli [23]): 13 mm; zone of inhibition at 750 µg/mL (Escherichia coli [24]): 13 mm; zone of inhibition at 1000 µg/mL (Escherichia coli [25]): 14 mm
